BindingDB's records for patent US20260062376 (Research Triangle Institute, 2026)

Each compound was assayed against Cannabinoid receptor 1 (Mus musculus, UniProt P47746) (assay: [35S]GTPγS Binding Assay).
Protocol: For receptor signaling, membranes (10 μg protein) from either ICR mouse cerebellum mice (6-8 weeks old; Enviga International, Indianapolis, Indiana, United States of America) or HEK cells stably expressing CB1 receptor were preincubated in assay buffer for 10 min with 3 units/ml adenosine deaminase then incubated for 60 min at 30° C. with 30 μM GDP and 0.1 nM [35S]GTPγS (Perkin Elmer Life Sciences, Boston, Massachusetts, United States of America). Non-specific binding was determined by adding 30 μM unlabeled GTPγS.

Chain of Cannabinoid receptor 1 (P47746 whole entry): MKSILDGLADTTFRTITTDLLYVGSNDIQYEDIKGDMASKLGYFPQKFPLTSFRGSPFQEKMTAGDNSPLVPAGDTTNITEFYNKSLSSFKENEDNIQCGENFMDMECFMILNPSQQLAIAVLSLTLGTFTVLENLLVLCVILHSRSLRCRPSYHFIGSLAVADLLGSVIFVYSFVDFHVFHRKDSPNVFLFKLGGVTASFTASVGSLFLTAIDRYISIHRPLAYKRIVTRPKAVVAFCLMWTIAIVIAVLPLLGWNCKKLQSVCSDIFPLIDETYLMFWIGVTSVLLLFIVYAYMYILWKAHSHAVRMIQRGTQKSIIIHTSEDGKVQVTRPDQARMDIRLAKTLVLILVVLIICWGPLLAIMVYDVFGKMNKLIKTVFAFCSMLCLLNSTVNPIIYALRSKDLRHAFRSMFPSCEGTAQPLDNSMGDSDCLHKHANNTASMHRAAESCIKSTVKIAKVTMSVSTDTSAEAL

Row | SMILES | IC50 [nM]
1 | O=c1c(NCCc2ccc(Cl)cc2Cl)c(Nc2ccc(Cl)cc2)c1=O [US20260062376, Compound 44] | 525
2 | O=c1c(NCCc2cccs2)c(Nc2ccc(Cl)cc2)c1=O [US20260062376, Compound 39] | 1350
3 | CCN(CC)c1ccc(CCNc2c(Nc3ccc(Cl)cc3)c(=O)c2=O)cc1 [US20260062376, Compound 48] | 468
4 | O=c1c(NCCc2ccccc2F)c(Nc2ccc(Cl)cc2)c1=O [US20260062376, Compound 24] | 661
5 | O=c1c(NCCc2ccc(Br)cc2)c(Nc2ccc(Cl)cc2)c1=O [US20260062376, Compound 38] | 871
6 | Cc1ccccc1CCNc1c(Nc2ccc(Cl)cc2)c(=O)c1=O [US20260062376, Compound 35] | 2690
7 | Cc1ccc(CCNc2c(Nc3ccc(Cl)cc3)c(=O)c2=O)cc1C [US20260062376, Compound 42] | 331
8 | O=c1c(NCCc2cccc(O)c2)c(Nc2ccc(Cl)cc2)c1=O [US20260062376, Compound 43] | 4790
9 | O=c1c(NCCc2ccccn2)c(Nc2ccc(Cl)cc2)c1=O [US20260062376, Compound 36] | 1780
10 | CN(C)c1cccc(CCNc2c(Nc3ccc(Cl)cc3)c(=O)c2=O)c1 [US20260062376, Compound 26] | 1100

The next compounds have a lower IC50 than those just listed; values first:

Row | IC50 [nM] | SMILES
11 | 81.3 | Cc1ccc(CCNc2c(Nc3ccc(Cl)cc3)c(=O)c2=O)cc1 [US20260062376, Compound 15]
12 | 295 | O=c1c(NCCc2ccc(Cl)c(Cl)c2)c(Nc2ccc(Cl)cc2)c1=O [US20260062376, Compound 41]
13 | 229 | O=c1c(NCCc2cccc(Cl)c2)c(Nc2ccc(Cl)cc2)c1=O [US20260062376, Compound 7]
14 | 275 | O=c1c(NCCc2ccc(Cl)cc2)c(Nc2ccc(Cl)cc2)c1=O [US20260062376, Compound 13]
15 | 166 | Cc1cccc(CCNc2c(Nc3ccc(Cl)cc3)c(=O)c2=O)c1 [US20260062376, Compound 14]
16 | 40.7 | CN(C)c1ccc(CCNc2c(Nc3ccc(Cl)cc3)c(=O)c2=O)cc1 [US20260062376, Compound 27]
17 | 240 | O=c1c(NCCc2cccc(F)c2)c(Nc2ccc(Cl)cc2)c1=O [US20260062376, Compound 25]
